From patent publication US9302993B2, “8-hydroxy quinoline derivatives” (PRANA BIOTECHNOLOGY LIMITED, priority 2002, dated 2016)
In brackets after ≈: the same amount, converted by molar mass. Like-named read-outs stand apart in the source and are kept apart here.

Columns and labels:
APP2576 transgenic mouse [1] = assay: Transgenic mouse brain immunohistochemistry, plaque abundance (Assay 15); type: in vivo
From the text: Assay 15. Transgenic Mouse Brain Immunohistochemistry
The APP2576 transgenic mouse (Hsiao et al., 1996) as referred to in Assay 11 were utilized in this assay. The contralateral formalin-fixed mouse brain tissue was coronally cut. Sections (10 μm) were taken from the corresponding sites and treated with 80% formic acid for antigen retrieval. The primary antibody used was monoclonal antibody 1E8, which recognizes epitopes between residues 18 and 22 of Aβ (SmithKline Beecham, UK). Immunoreactivity was developed with secondary antibody linked to horseradish peroxidase (using a 3,39-diaminobenzidinechromagen) (Dako) and alkaline phosphatase (using 5-bromo-4-chloro 3-indoxyl phosphate and nitroblue tetrazolium chloride chromagen) (Dako). Plaque abundance per section was assessed by two operators blinded to treatment according to the following scale:
1=plaques present but very sparse
2=several plaques present
3=numerous plaques visible in restricted areas
4=plaques abundant and not restricted to any particular area.
Intermediate values eg 2.5 were assigned where applicable.
Students' t ‘test was used for comparisons between groups.

[2] = Turbidimetric solubility measurements (Assay 13); type: physicochemical; details: kinetic from dmso stock, 1% DMSO, nephelometry
Method: Turbidimetric Solubility Measurements
The solubility estimate was measured at both pH 2.0 and pH 6.5. This is within the pH range that can be anticipated along the proximal gastrointestinal tract in humans.
The compounds were dissolved in DMSO to appropriate concentrations and then spiked into either 0.01M HCl (approx. pH=2.0) or pH 6.5 isotonic phosphate buffer, the final DMSO concentration being 1%. Samples were then analysed via Nephelometry to determine a solubility range. [as per D. Bevan and R. S. Lloyd, Anal. Chem. 2000, 72, 1781-1787].

APP2576 transgenic mouse [3] = assay: Effect of administration of test compounds on Aβ deposits in transgenic animals (Assay 11); type: in vivo; set-up: concentration or dose not given beside the values; details: transgenic mouse brains
[4] = system: Neuronal cortical cells treated with Aβ1-42; assay: Assay for Aβ neurotoxicity and Aβ neuroprotection (Assay 3(c)); type: cell-based, mouse; details: 20 uM Aβ1-42, 4 days, MTS
[5] = system: Aβ in extract of tissue from post mortem human AD brain; assay: Human brain amyloid solubilisation assay (Assay 9, BAS); type: biochemical; details: solubilising plaques relative to PBS
Method: Assay 9. Human Brain Amyloid Solubilisation Assay
This assay was performed in order to assess the ability of a test compound to mobilise Aβ from the insoluble to the soluble phase of an extract of tissue from post mortem human AD brain.
Up to 0.5 g of plaque-bearing cortex without meninges was homogenized using a DIAX 900 homogenizer (Heudolph and Co, Kelheim, Germany) or other suitable device for three 30-second periods at full speed in 2 ml of ice-cold phosphate-buffered saline, pH 7.4. To obtain the phosphate-buffered saline-extractable fraction, the homogenate was centrifuged at 100,000×g for 30 min and the supernatant removed. Alternatively, the tissue was freeze dried then pulverised to form a powder which was then weighed out into aliquots for extraction as above. Supernatant, either freeze-dried and resuspended or in unconcentrated form, was dissolved in 200 μl of Tris-Tricine sodium dodecyl sulfate (SDS) sample buffer pH 8.3 containing 8% SDS, 10% 2-mercaptoethanol. Aliquots (10 μl) were then boiled for 10 minutes before SDS-polyacrylamide gel electrophoresis. The insoluble fraction of the cortical samples was obtained by resuspending the initial pelleted sample in 1 ml of phosphate-buffered saline. A 50-μl aliquot of this suspension was then boiled in […] of sample buffer as above.
Tris-Tricine polyacrylamide gel electrophoresis was performed by loading appropriately diluted samples on to 10% to 20% gradient gels (Novex, San Diego, Calif.) followed by transfer on to 0.2-μm nitrocellulose membrane (Bio-Rad, Hercules, Calif.). Aβ was detected by using monoclonal antibody W02, which detects residues 5 through 8, […] (or another suitable antibody) in conjunction with horseradish peroxidase-conjugated rabbit anti-mouse IgG (Dako, Denmark), and visualized by using enhanced chemiluminescence (eg ECL; Amersham Life Science, Buckinghamshire, UK). Each gel included three lanes containing 0.5, 1, and 2 ng of synthetic Aβ40 (Keck Laboratory, Yale University, New Haven, Conn.) as reference standards.
Blot films were scanned by using a suitable imaging system such as the UVP gel documentation system, and densitometry performed using suitable software, eg UVP Labworks. The dynamic range of the film/scanner was determined by using a step tablet (No. 911ST600, Kodak, Rochester N.Y.), a calibrated film exposed by the manufacturer to provided steps of known increasing intensity. The quantifiable range of signal intensity for densitometric analysis of the mono- and dimeric Aβ bands was based on the comparison with a curve obtained by scanning and densitometry of the step tablet.
All samples were analysed at least twice, and gel loadings and dilutions were adjusted to fit within the quantifiable region of the standard curve. […] The insoluble Aβ being comprised of the pelletable fraction derived from the insoluble amyloid plaque from the above cortical samples and the soluble fraction comprising monomeric and/or oligomeric soluble Aβ.

Neuronal cortical cells = assay: Assay for test compound cytoxicity, MTS (Assay 3(d)); type: cell-based, mouse; details: BL6J×129sv, mouse, 4 days
[6] = E Log D, chromatographic method (Assay 13); type: physicochemical; details: SUPELCOSIL LC-ABZ column with octanol saturated mobile phase, pH 7.4; read-out: E Log D7.4
Method: Effective Log D values were measured using a chromatographic method employing a SUPELCOSIL LC-ABZ column using an octanol saturated mobile phase at pH 7.4.

APP2576 transgenic mouse [7] = details: previous studies on transgenic mice, 20-30 mg/kg orally daily five days per week, 2-3 months; cited from earlier work
[8] = system: moderately severe AD patients; assay: Phase II clinical trial of PBT-1 in Alzheimer's disease (Example 21); type: in vivo, human; details: for Steady state pre-dose levels of PBT-1: blood; for difference in mean change from baseline ADAS-cog score of PBT-1 over placebo: more-severely affected groups
From the text: The performance of the less-severely affected group (ADAS-cog<25) deteriorated negligibly over this interval, so cognitive changes could not be discriminated in this stratum.
The study took place at the AD clinical trials unit, Mental Health Research Institute of Victoria and at the Royal Melbourne Hospital. Criteria for inclusion in the study were: informed consent; a diagnosis of probable AD by NINCDS-ADRDA criteria (McKhann et al., 1984); AD Assessment Scale-cognitive (ADAS-cog) (Rosen et al., 1984) score of 18-45; Mini Mental State Examination (MMSE) (Folstein et al., 1975) score of 10-24; on donepezil 5 mg or 10 mg for at least 6 months; relative or carrier willing and able to support the trial; able to complete trial examinations; primary sensorial functions intact.
The study was a double blind, placebo-controlled, parallel group randomized design. […] The duration of the study was 36 weeks.
Screening procedures consisted of a complete medical history, physical, neurological and ophthalmic examination, blood and urine tests and psychometric tests (ADAS-cog, MMSE). Nerve conduction tests and visual evoked responses were conducted between the screening and baseline visits to provide a baseline measurement. Blood was collected for ApoE allotyping, baseline plasma levels of metals and Aβ prior to randomization. All patients continued their study entry dose of donepezil and all patients received 100 mg vitamin B12 intramuscularly every four weeks.
Blood samples were collected by antecubital venepuncture except on weeks 12, 24 and 36 when they were collected by an indwelling catheter. […] Zn data from these intervals were therefore omitted from analysis.
The primary clinical efficacy variable was a change from baseline score on the ADAS-cog conducted at baseline and at weeks 4, 12, 24 and 36. This measure was chosen to allow comparability of treatment effects with current therapeutics such as donepezil, where efficacy trials also used ADAS-cog as their primary outcome measure (Rogers et al., 1998). Although numerous neuropsychological tests could be considered as secondary measures, it was necessary to avoid fatiguing the subjects at review. Therefore the only other cognitive test was the Mini-Mental State Exam (MMSE). The CIBIC+ (clinician interview based impression of change incorporating caregiver information), a subjective observational index was also conducted. Plasma Aβ, and plasma zinc and copper were all taken every four weeks.
Polystyrene plates were coated with mAb G210 (for Aβ40) or mAb G211 (for Aβ42). Plates were washed and biotinylated mAb WO2 was added. Bound antibody was detected with streptavidin-labelled Europium (Perkin Elmer, Vic Australia). The values obtained from triplicated wells were calculated based on standard curves generated on each plate. Plasma samples supplemented with synthetic Aβ1-40 and Aβ1-42 were also assayed to confirm measurement reliability across the concentration range of interest.
Metals were measured by inductively coupled plasma mass spectrometry as previously described (Cherny et al., 2001).
Standard adverse event reporting was conducted and biochemical tests, renal and liver function, complete blood examination, serum vitamin B12 and folate levels were documented at each visit. To assess for peripheral and optic neuropathy a neurological examination was conducted at each visit, and visual evoked responses, nerve conduction studies and ophthalmic examination were conducted at screening, week 16 and prior to the final trial visit. An ECG was done at screening and weeks 12, 24 and 36.
Data monitoring and management were undertaken by independent contractors (Kendle International and Health Research Solutions, Melbourne). Evidence for efficacy was indicated by a significant difference in change from baseline between treatment arms. […]

[9] = target: T1, hydrogen peroxide generation by Aβ in the presence of copper (Homo sapiens, UniProt P05067); assay: Fluorometric H2O2 assay (Assay 1); type: biochemical; details: DCF/HRP, 37 C 60 min, several values in one cell = repeat determinations
T1 construct: The reaction solutions contained Aβ 1-42 at concentrations in the range of 50 nM to 1 μM
Summary of the method: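 Aβ1-42 (50 nM–1 μM) with Cu-glycine (2 Cu-Gly : 1 Aβ) and a reductant (dopamine 5 μM or ascorbic acid) was incubated 60 min at 37 °C in PBS pH 7.4 with test compound. H2O2 was detected with 100 μM deacetylated DCF and 0.1 μM HRP by fluorescence against H2O2 standards.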

T1 sequence (P05067 672-713 limits assumed): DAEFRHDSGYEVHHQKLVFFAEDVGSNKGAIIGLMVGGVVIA

## Oc1c(Cl)cc(Cl)c2ccc(-c3ccccn3)nc12 [compound 1052, 5,7-dichloro-8-hydroxy-2-(2-pyridyl)quinoline]
APP2576 transgenic mouse [1]; plaque score
  % difference from control (sham treated animal): −8%
APP2576 transgenic mouse [1]; scale 0 to 4
  Mean plaque score: 3.2
[2]; aqueous buffer, pH 6.5 isotonic phosphate buffer, read-out: Solubility pH 6.5
  solubility: < 3.1 µg/mL
[2]; simulated gastric fluid, 0.01M HCl (approx. pH 2.0), read-out: Solubility (μg/mL) 0.01M HCl
  solubility: 6.3 to 12.5 µg/mL (≈ 21.6 to 42.9 µM)
APP2576 transgenic mouse [3]; insoluble Aβ
  Insoluble fraction. % change compared with control.: −22%
APP2576 transgenic mouse [3]; soluble Aβ
  Soluble fraction. % change compared with control.: negligible
[4]
  % inhibition Abeta toxicity: 19%
[5]
  BAS Score: +
Neuronal cortical cells
  Test Compound Cytoxicity 1 uM: 63
  Test Compound Cytoxicity 10 uM: 32
[6]
  chromatographic logD: 2.85

## Oc1c(I)cc(Cl)c2cccnc12 [PBT-1]
APP2576 transgenic mouse [7]
  inhibiting Aβ accumulation: markedly effective
[8]; AD patients
  effect on plasma Cu: no effect
  elevation of total plasma Zn: ≈ 30%
[8]; total daily dosage 250 mg
  Steady state pre-dose levels of PBT-1: 4.03 ± 2.10 µg/mL
[8]; total daily dosage 500 mg
  Steady state pre-dose levels of PBT-1: 6.74 ± 3.70 µg/mL
[8]; total daily dosage 750 mg
  Steady state pre-dose levels of PBT-1: 7.60 ± 2.15 µg/mL
[8]; from week 20 onwards
  Plasma Aβ42 change from baseline: significant decline from baseline
[8]; week 24
  difference in mean change from baseline ADAS-cog score of PBT-1 over placebo: 7.37
[8]; week 36
  difference in mean change from baseline ADAS-cog score of PBT-1 over placebo: 6.36
[8]; over 36 weeks, more-severely affected patients (baseline ADAS-cog≧25)
  effect of treatment in preventing cognitive deterioration: statistically significant

## O=S(=O)(O)c1ccc(O)c2ncccc12 [compound 41]
[9]; Peroxide IC50, Aβ 1-42 with Cu-Gly
  IC50: 500 nM
[4]
  % inhibition Abeta toxicity: 12%
[5]
  BAS Score: +
Neuronal cortical cells
  Test Compound Cytoxicity 0.1 um: 95%
  Test Compound Cytoxicity 1 uM: 100
  Test Compound Cytoxicity 10 uM: 100
  Viable 10 uM: 81.33

## O=C(NCCc1ccccn1)c1ccc2cccc(O)c2n1 [compound 950]
[9]; Aβ 1-42 with Cu-Gly, read-out: Peroxide IC50
  IC50: 250 nM
[4]
  % inhibition Abeta toxicity: 5%
[5]
  BAS Score: +
Neuronal cortical cells
  Test Compound Cytoxicity 0.1 um: 95%
  Test Compound Cytoxicity 1 uM: 88
  Test Compound Cytoxicity 10 uM: 89
  Viable 10 uM: 92.8
